Source: BindingDB's records for doi:10.1016/j.ejmech.2017.08.046 (University of Torino, 2017)

target: Prostaglandin G/H synthase 2 (Homo sapiens) (UniProt P35354); test: Inhibition of human COX2 assessed as reduction in PGF2alpha production by ELISA
Sequence (P35354 whole entry, looked up): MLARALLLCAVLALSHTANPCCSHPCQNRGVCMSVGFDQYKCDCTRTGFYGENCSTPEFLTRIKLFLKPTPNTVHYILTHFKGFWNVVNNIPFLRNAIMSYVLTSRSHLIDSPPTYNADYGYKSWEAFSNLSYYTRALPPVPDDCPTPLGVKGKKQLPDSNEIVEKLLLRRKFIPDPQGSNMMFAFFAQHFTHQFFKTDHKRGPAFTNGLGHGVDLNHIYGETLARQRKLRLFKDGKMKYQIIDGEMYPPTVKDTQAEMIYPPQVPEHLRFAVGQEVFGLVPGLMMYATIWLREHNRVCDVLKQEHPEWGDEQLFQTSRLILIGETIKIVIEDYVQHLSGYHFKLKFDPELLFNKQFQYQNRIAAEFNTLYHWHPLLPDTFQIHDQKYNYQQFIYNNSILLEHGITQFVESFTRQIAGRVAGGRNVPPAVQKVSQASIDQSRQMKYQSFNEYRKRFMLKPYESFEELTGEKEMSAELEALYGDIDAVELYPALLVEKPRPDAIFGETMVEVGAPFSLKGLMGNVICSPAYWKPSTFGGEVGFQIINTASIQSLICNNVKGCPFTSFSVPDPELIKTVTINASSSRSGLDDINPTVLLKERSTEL

IC50, > 100 µM:
O=C(Nc1cccc(C(F)(F)F)c1)c1c(O)nnn1Cc1ccccc1
COc1ccc(Cn2nnc(O)c2C(=O)Nc2cccc(C(F)(F)F)c2)cc1
O=C(Nc1cccc(C(F)(F)F)c1)c1c(O)nnn1CC1CC1
